From ChEMBL document CHEMBL1156829 (Proc Natl Acad Sci U S A, 2008)

Assays:
[1] = NOVARTIS: Cytotoxicity against human hepatocellular carcinoma cell line (Huh7); assay type: toxicity, cell-based, Huh-7; settings: Huh7 cells (hepatocellular carcinoma cell line)
Plasmodium falciparum [2] = experiment: NOVARTIS: Inhibition of Plasmodium falciparum W2 (drug-resistant) proliferation in erythrocyte-based infection assay; assay type: functional, organism-based; settings: Plasmodium falciparum, W2; read-out: EC50
Plasmodium falciparum [3] = experiment: NOVARTIS: Inhibition of Plasmodium falciparum 3D7 (drug-susceptible) proliferation in erythrocyte-based infection assay; assay type: functional, organism-based; settings: Plasmodium falciparum, 3D7

Row | SMILES | CC50 [1] | EC50 (Plasmodium falciparum [2]) | EC50 (Plasmodium falciparum [3])
1 | COc1ccc(OC)c(/C=C/C(=O)Nc2ccc3nc(N4CCN(C)CC4)cc(C)c3c2)c1 | > 10 µM | > 0.873 µM | > 1.25 µM
2 | CCc1ccc(-n2c(C(CC)N(CCc3ccc(OC)c(OC)c3)C(=O)C(CC)c3ccccc3)nc3ccccc3c2=O)cc1 (stereo not given) | > 10 µM | > 0.867 µM | > 1.25 µM
3 | COc1ccc(CCn2c(SCC(=O)N3CCN(c4ccccc4OC)CC3)nc3ccccc3c2=O)cc1OC | > 10 µM | > 0.864 µM | > 1.25 µM
4 | NCCCCCCNC(=S)Nc1ccccc1 | > 10 µM | > 0.859 µM | > 1.41 µM
5 | CCCCCN(C(=O)Nc1ccccc1OC)C(CC)c1nc2ccccc2c(=O)n1-c1ccccc1OC (stereo not given) | > 10 µM | 0.835 µM | 0.78 µM
6 | CCOC(=O)C1=C(C)N(CCNc2ncc(C(F)(F)F)cc2Cl)C(=O)CC1 | > 100 µM | 8.35 µM | 7.67 µM
7 | COc1cc(NC(C)CCCN(Cc2ccc(OC)c(OC)c2)C(=O)CCC2CCCC2)c2ncccc2c1 (stereo not given) | 3.99 µM | 0.333 µM | 0.687 µM
8 | CCCCN(CCCC)[P+](N(CCCC)CCCC)(N(CCCC)CCCC)N(CCCC)CCCC | 0.784 µM | 0.0654 µM | 0.224 µM
9 | CCOc1ccccc1-n1c(C(C)N(CCc2ccccc2)C(=O)c2ccc(Br)cc2)nc2ccccc2c1=O (stereo not given) | > 10 µM | 0.834 µM | > 1.25 µM
10 | CCc1ccc2c(c1)c1nnc(SCC(=O)NCCOC)nc1n2C | > 10 µM | > 0.838 µM | > 1.25 µM
11 | CCc1nnc2n1N(C(C)=O)C(c1ccc(Cl)c(Cl)c1)=C(C(C)=O)S2 | > 10 µM | > 0.835 µM | > 1.25 µM
12 | COc1cc(C=NNC(=O)Cc2nnc(N)s2)ccc1O | > 12.7 µM | > 1.11 µM | > 1.25 µM
13 | CC1CCCCN1CCCNc1ncc(C(=O)NCc2ccccc2)c(NCCc2ccccc2)n1 (stereo not given) | > 10 µM | > 0.878 µM | 0.247 µM
14 | Cc1ccc(-c2nc3cc(NC(=O)c4ccc([N+](=O)[O-])o4)ccc3o2)cc1Br | 74 µM | 6.49 µM | 6.92 µM
15 | CCOC(=O)c1c(NC(=O)COc2ccccc2[N+](=O)[O-])sc(C(C)=O)c1C | > 10 µM | > 0.853 µM | > 1.25 µM
16 | O=C(NCC1CCCO1)c1ccc([N+](=O)[O-])cc1Cl (stereo not given) | > 10 µM | > 0.877 µM | > 1.12 µM
17 | CCc1ccc(C(=O)N(C)CCCNc2ccnc3cc(Cl)ccc23)cc1 | 2.86 µM | 0.25 µM | 0.337 µM
18 | CCCCN1C(=O)/C(=C/N(C(=O)CC)c2ccccc2)SC1=S | > 10 µM | > 0.853 µM | > 0.699 µM
19 | CN(C)CCNC(=O)c1ccc(-c2cccc3c2sc2ccccc23)nc1N1CCN(CCO)CC1 | 5.32 µM | 0.452 µM | 0.388 µM
20 | Cc1cc(-c2cncnc2C2CCN(C(=O)c3cc(C(C)C)n[nH]3)CC2)on1 | > 10 µM | > 0.849 µM | > 1.25 µM
21 | CC1CN(C)C(C)CC1=NOC(=O)c1ccc(Cl)c(Cl)c1 (stereo not given) | > 10 µM | > 0.848 µM | > 1.25 µM
22 | COc1ccccc1N1CCN(c2ccc(NC(=O)c3ccc(Br)cc3)cc2C(=O)NCCCN(C)C)CC1 | 1.34 µM | 0.117 µM | > 1.25 µM
23 | CC(C)(C)CC(=O)N1CCC[C@@H]2CN(C(=O)CCOc3ccccc3)CC[C@@H]21 | > 10 µM | > 0.874 µM | > 1.25 µM
24 | CC(NCCN1CCNCC1)c1cc(C(C)(C)C)cc2c1CCC2(C)C (stereo not given) | 6.72 µM | 0.586 µM | 0.598 µM

Row | SMILES | CC50 [1] | EC50 (Plasmodium falciparum [2]) | EC50 (Plasmodium falciparum [3])
25 | O=C(O)CCCCCNc1ncnc2sc3c(c12)CCCC3 | > 10 µM | 0.869 µM | > 1.25 µM
26 | COc1cc(Br)c(CCNC(=O)Cc2cc(OC)c(OC)cc2Br)cc1OC | > 100 µM | > 8.68 µM | > 8.77 µM
27 | COc1ccc(/C=C/c2ccc3ccccc3[n+]2C)cc1OC | > 10 µM | 0.867 µM | 0.872 µM
28 | CC1=NOC(=O)/C1=C/c1ccc(-c2ccc([N+](=O)[O-])cc2)o1 | > 10 µM | > 0.865 µM | > 1.25 µM
29 | CCNc1ncnc2sc(C(=O)NCc3csc(C)n3)c(C)c12 | > 100 µM | > 8.59 µM | > 12.5 µM
30 | CC(C)CNc1nc(NCCCN2CCCCC2C)ncc1C(=O)NCc1ccccc1 (stereo not given) | > 10 µM | 0.859 µM | 0.236 µM
31 | O=C1Nc2ccccc2C1=Nc1ccccc1NS(=O)(=O)c1ccc2ccccc2c1 | > 10 µM | > 0.857 µM | > 1.25 µM
32 | CC(c1nc2ccc(Cl)cc2c(=O)n1C)N1CCN(C(=O)C(C)(C)C)CC1 (stereo not given) | > 10 µM | 0.86 µM | 1.47 µM
33 | O=C(NCC1CCCO1)c1cc(S(=O)(=O)N2CCCCC2)c[nH]1 (stereo not given) | > 10 µM | > 0.86 µM | > 1.25 µM
34 | CCOC(=O)c1ccc(N2CCN(c3ccc(F)cc3)CC2)c(NC(=O)Nc2ccccc2)c1 | > 10 µM | > 0.86 µM | > 1.25 µM
35 | O=[N+]([O-])c1ccc(Nc2nc(NN=Cc3ccccc3I)nc(Nc3ccccc3)n2)cc1 | 32.8 µM | 2.82 µM | 0.846 µM
36 | COc1cc(C)c(CCNCCCCCCNCCc2cc(OC)c(OC)cc2C)cc1OC | > 10 µM | > 0.88 µM | 0.23 µM
37 | CC[C@H]1CN2CC[C@H]1C[C@H]2[C@H](O)c1ccnc2ccccc12 | > 7.91 µM | 0.696 µM | 0.183 µM
38 | CC(C)N1CCc2c(sc(NC(=O)C(C)(C)C)c2C(N)=O)C1 | 71.2 µM | 6.26 µM | 1.03 µM
39 | Cc1cnc(Sc2ccccn2)c([N+](=O)[O-])c1 | 72.9 µM | 6.13 µM | > 12.5 µM
40 | Nc1c(C(=O)c2ccc(Br)cc2)sc2nc(-c3cccnc3)ccc12 | > 13 µM | > 1.09 µM | 1.3 µM
41 | COc1ccccc1Cc1nc2ccccc2nc1SCC(=O)Nc1cccc(C(F)(F)F)c1 | > 100 µM | > 8.34 µM | > 5.52 µM
42 | CN(C)CCNc1ccc2ncc(-c3ccsc3)n2n1 | > 10 µM | > 0.846 µM | > 1.25 µM
43 | COc1cc(NC(C)CCCN(Cc2ccccc2OC)C(=O)Nc2cccc(F)c2)c2ncccc2c1 (stereo not given) | > 10 µM | 0.84 µM | > 1.66 µM
44 | CC1(C)C2C[C@@H](COC(=O)NC(=O)c3ccccc3)[C@]3(C)[C@H](C21)C3(Cl)Cl (stereo not given in full) | > 11.2 µM | 0.951 µM | 1.14 µM
45 | Cn1nc(C(=O)N2CCCC2)c2c1CCC(NCc1cnc3ccccc3c1)C2 (stereo not given) | > 10 µM | > 0.843 µM | > 1.25 µM
46 | C=CCNCc1cc(-c2cc(OC)ccc2OC)ccc1O | > 10 µM | 0.84 µM | 1.1 µM
47 | Cc1ccc(Nc2nc(N)c3ccccc3n2)cc1Cl | 8.92 µM | 0.755 µM | 0.527 µM
48 | CCOc1ccc(-c2noc(-c3ccncc3)n2)cc1OCC | > 10 µM | > 0.847 µM | > 1.25 µM

Row | SMILES | CC50 [1] | EC50 (Plasmodium falciparum [2]) | EC50 (Plasmodium falciparum [3])
49 | COc1ccc2nc3cc(Cl)ccc3c(Nc3ccc(O)cc3)c2c1 | > 10 µM | 0.845 µM | 0.809 µM
50 | COc1ccccc1NC(=O)CSc1nc2cccnc2n1-c1ccccc1OC | > 10 µM | 0.848 µM | 0.833 µM
51 | CC1=NN(c2ccc(C(=O)O)cc2)C(=O)/C1=C\c1ccc([N+](=O)[O-])o1 | > 10 µM | > 0.839 µM | > 1.25 µM
52 | O=C(NCCc1ccccc1)c1cnc(NCCCn2ccnc2)nc1Nc1ccccc1 | > 10 µM | 0.843 µM | 0.552 µM
53 | CCCCCN(C(=O)COCc1ccccc1)C(CC)c1nc2ccccc2c(=O)n1-c1cccc(Cl)c1 (stereo not given) | > 10 µM | 0.847 µM | 0.411 µM
54 | CC(C)c1ccc(-c2cncc(N[C@@H](C)c3ccccc3)n2)cc1 | > 10 µM | 0.846 µM | > 0.558 µM
55 | O=C1C(=Cc2cc([N+](=O)[O-])cc(Br)c2O)C(=O)c2ccccc21 | > 10 µM | > 0.877 µM | > 1.25 µM
56 | COc1cc(NC(C)CCCN(Cc2ccc(Cl)cc2)C(=O)C(C)C)c2ncccc2c1 (stereo not given) | 13.2 µM | 1.12 µM | 1.68 µM
57 | CN1CCN(C(=S)NC(=O)/C=C/c2ccc(F)cc2)CC1 | > 10 µM | > 0.874 µM | > 1.25 µM
58 | COC(=O)c1c(-c2ccccc2Cl)csc1N | > 10 µM | > 0.854 µM | > 1.25 µM
59 | O=[N+]([O-])c1cccc(CNc2ccc(F)c(Cl)c2)c1 | > 95.6 µM | 8.05 µM | > 12.5 µM
60 | CCOC(=O)c1ccc(NC(=O)CSc2nc(NCc3ccccc3)c3ccccc3n2)cc1 | > 10 µM | > 0.836 µM | > 1.14 µM
61 | CC1C(Br)C(=O)C(Br)C(C)C12CCCC2 (stereo not given) | > 10 µM | > 0.871 µM | > 1.25 µM
62 | Cc1ccc(C(=O)c2c(C)oc3ccc(O)cc23)cc1 | > 10 µM | > 0.839 µM | > 1.25 µM
63 | CC(=NNc1nc2ccccc2s1)c1ccc([N+](=O)[O-])cc1 | > 10 µM | > 0.848 µM | > 0.965 µM
64 | O=C(NNS(=O)(=O)c1ccccc1[N+](=O)[O-])c1ccccc1 | > 10 µM | > 0.833 µM | > 1.25 µM
65 | C=CCn1c2cc(C)sc2c2cnn(CC(=O)N3CC(C)CC(C)C3)c(=O)c21 (stereo not given) | > 10 µM | > 0.857 µM | > 1.25 µM
66 | Cc1nn(C)cc1-c1nc2cnccn2c1NCC1CCCO1 (stereo not given) | > 10 µM | > 0.876 µM | > 1.25 µM
67 | COc1ccccc1CCNCc1cc(-c2ccc(F)cc2)ccc1O | > 10 µM | 0.869 µM | 1.05 µM
68 | CCC1=NN2C(=N)/C(=C/c3cn(CCOc4ccccc4C(C)CC)c4ccccc34)C(=O)N=C2S1 (stereo not given) | > 10 µM | > 0.865 µM | > 1.25 µM
69 | CC1CC2=C(CC1CNCCCN(C)C)C(C)(C)CCC2 (stereo not given) | > 10 µM | 0.844 µM | 0.25 µM
70 | COc1cc(NC(C)CCCN(Cc2ccccc2OC)C(=O)c2cccc(Br)c2)c2ncccc2c1 (stereo not given) | > 6.43 µM | 0.563 µM | > 0.948 µM
